From US9278954B2, “Pyrrolidine derivatives, pharmaceutical compositions and uses thereof” (Boehringer Ingelheim International GmbH, priority 2013, dated 2016) come the findings set out here.

Sequence of human ACC2 (O00763 129-2458): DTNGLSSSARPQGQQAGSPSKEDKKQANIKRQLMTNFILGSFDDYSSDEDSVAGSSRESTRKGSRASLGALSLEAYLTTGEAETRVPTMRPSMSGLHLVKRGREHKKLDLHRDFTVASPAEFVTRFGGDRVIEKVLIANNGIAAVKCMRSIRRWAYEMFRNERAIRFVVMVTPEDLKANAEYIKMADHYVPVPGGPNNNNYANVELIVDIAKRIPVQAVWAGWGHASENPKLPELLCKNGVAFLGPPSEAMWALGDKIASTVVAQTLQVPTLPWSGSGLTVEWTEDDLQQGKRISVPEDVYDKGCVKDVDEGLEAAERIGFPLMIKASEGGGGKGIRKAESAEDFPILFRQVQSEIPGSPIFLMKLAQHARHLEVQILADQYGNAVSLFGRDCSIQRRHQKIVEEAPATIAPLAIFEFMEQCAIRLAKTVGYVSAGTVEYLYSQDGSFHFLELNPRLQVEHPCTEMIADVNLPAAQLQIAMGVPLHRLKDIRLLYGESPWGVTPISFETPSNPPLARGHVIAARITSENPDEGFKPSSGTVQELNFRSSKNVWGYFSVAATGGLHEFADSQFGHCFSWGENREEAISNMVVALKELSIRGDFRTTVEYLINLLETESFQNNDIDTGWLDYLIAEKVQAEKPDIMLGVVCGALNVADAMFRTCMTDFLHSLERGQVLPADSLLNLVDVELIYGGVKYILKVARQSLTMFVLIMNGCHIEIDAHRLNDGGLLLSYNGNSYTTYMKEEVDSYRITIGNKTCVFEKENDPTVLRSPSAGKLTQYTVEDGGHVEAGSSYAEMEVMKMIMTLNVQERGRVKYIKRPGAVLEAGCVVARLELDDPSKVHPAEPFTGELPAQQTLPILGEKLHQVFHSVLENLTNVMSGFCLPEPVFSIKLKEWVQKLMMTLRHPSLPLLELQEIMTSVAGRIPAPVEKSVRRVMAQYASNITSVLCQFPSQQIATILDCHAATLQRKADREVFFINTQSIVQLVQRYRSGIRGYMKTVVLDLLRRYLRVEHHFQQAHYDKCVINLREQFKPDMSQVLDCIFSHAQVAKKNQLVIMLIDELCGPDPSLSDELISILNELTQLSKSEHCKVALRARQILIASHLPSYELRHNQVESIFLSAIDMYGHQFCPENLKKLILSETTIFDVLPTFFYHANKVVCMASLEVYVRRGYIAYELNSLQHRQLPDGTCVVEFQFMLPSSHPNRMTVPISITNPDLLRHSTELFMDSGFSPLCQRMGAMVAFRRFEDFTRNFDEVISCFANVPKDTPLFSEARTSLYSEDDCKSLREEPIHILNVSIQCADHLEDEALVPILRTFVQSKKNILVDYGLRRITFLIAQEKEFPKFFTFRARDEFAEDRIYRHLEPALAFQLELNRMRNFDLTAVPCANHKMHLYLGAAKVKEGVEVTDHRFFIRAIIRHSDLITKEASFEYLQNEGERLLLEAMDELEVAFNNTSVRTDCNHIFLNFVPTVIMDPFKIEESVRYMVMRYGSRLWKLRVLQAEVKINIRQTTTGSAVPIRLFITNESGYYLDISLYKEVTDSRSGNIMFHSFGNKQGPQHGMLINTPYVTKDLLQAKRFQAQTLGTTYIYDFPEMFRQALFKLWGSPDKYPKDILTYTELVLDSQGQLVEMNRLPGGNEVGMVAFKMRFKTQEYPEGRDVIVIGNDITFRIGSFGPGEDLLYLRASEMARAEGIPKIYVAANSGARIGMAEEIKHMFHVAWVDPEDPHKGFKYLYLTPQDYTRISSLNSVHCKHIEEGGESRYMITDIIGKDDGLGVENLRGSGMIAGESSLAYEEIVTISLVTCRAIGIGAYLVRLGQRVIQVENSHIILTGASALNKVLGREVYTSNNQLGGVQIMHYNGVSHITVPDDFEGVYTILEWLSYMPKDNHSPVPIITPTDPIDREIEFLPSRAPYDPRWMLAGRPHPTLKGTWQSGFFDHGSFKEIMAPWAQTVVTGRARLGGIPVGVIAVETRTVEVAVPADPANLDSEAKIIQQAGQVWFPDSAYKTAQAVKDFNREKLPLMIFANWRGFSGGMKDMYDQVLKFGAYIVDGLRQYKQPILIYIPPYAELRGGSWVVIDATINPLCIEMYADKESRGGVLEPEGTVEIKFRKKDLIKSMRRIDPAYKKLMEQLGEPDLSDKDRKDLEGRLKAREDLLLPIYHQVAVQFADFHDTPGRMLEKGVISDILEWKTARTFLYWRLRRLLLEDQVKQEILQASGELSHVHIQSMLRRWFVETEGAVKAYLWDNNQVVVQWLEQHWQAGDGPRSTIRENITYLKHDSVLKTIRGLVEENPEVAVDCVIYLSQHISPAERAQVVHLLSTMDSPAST

This experiment addresses human ACC2 (Homo sapiens (Human), UniProt O00763). As to the kind of experiment: ACC2 assay (spectrophotometric 384 well assay, NADH-linked kinetic method). Format: biochemical. The conditions noted are these: hACC2 construct lacking the 128 N-terminal amino acids; 25° C., 340 nm over 15 minutes. On the procedure: Spectrophotometric 384 Well Assay
Malonyl CoA formation by acetyl CoA carboxylases is stoichometrically linked to the consumption of ATP. ACC2 activity is measured in a NADH-linked kinetic method measuring ADP generated during the ACC reaction using a coupled lactate dehydrogenase/pyruvate kinase reaction.
The protein is then expressed in insect cells using a baculoviral expression system. Protein purification is performed by anion exchange.
All compounds are dissolved in dimethyl sulfoxide (DMSO) to a concentration of 10 mM.
The enzymatic reaction is then started by addition of a mixture of NADH, acetyl
Coenzyme A (both […].) and ATP (500 uM f.c.). The decrease of the optical density (slope S) is then determined at 25° C. at a wavelength of 340 nm over 15 minutes in a spectrophotometric reader.
Each assay microtiter plate contains wells with vehicle instead of compound as controls for the non-inhibited enzyme (100% CTL; ‘HIGH’) and wells without acetyl-CoA as controls for non-specific NADH degradation (0% CTL; ‘LOW’).
As usually defined, the IC50 is the concentration that gives 50% inhibition. Low values mean higher potency, high ones lower potency. With `CCNC(=O)C(C)c1ccc(O[C@@H]2CCN(c3ccc(OC4CC4)cn3)C2)cc1` (stereo partly shown) [Example 8.4], the IC50 was determined as 910 nM. In turn, `CCCNc1nccc(N2CC[C@@H](Oc3ccc(C(C)C(=O)NCC)cc3)C2)c1F` (stereo partly shown) [Example 1.11] showed a half-maximal inhibitory concentration (IC50) of 213 nM. The compound `CCCNc1nccc(N2CC[C@@H](Oc3ccc(C(C)C(=O)NC4CC4)cc3)C2)c1F` (stereo partly shown) [Example 1.2] showed an IC50 of 61 nM.

In the case of `CC(C(=O)NC1CC1C)c1ccc(O[C@@H]2CCN(c3nc(N(C)C)ncc3F)C2)cc1` (single isomer, unassigned) [6.2 isomer 4], the concentration for half-maximal inhibition (IC50) is 1480 nM. Next, `CCNC(=O)C(C)c1ccc(O[C@@H]2CCN(c3ccc(OCCC4CC4)cc3)C2)cc1` (stereo partly shown) [Example 7.21]: 454 nM; `CC(C(=O)NCC(F)F)c1ccc(O[C@@H]2CCN(c3ncnc(OCC(C)(C)O)c3Cl)C2)cc1` (single isomer, unassigned) [6.5 isomer 1]: 135 nM; `CCNC(=O)C(C)c1ccc(O[C@@H]2CCN(c3ccc(F)c(C(F)(F)F)c3)C2)cc1` (stereo partly shown) [Example 7.6]: 229 nM.

`CCNC(=O)C(C)c1ccc(O[C@@H]2CCN(c3cccc(OC(C)CC)c3)C2)cc1` (stereo partly shown) [Example 7.30] had an IC50 of 630 nM. Turning to `C=CCNC(=O)C(C)c1ccc(O[C@@H]2CCN(c3ccc(OCC4CC4(F)F)cn3)C2)cc1` (stereo partly shown) [Example 1.31], it took 381 nM to reach half-maximal inhibition (IC50). Under `CC(C(=O)NCCF)c1ccc(O[C@@H]2CCN(c3nc(N(C)C)ncc3F)C2)cc1` (stereo partly shown) [Example 1.51] stands 512 nM; under `CCCNc1nccc(N2CC[C@@H](Oc3ccc(C(C)C(=O)NC4CC4C)cc3)C2)c1F` (single isomer, unassigned) [Example 1.4], 118 nM. Under `CNC(=O)C(C)c1ccc(O[C@@H]2CCN(c3nc(N(C)C)ncc3F)C2)cc1` (stereo partly shown) [Example 1.56] stands 579 nM. Under `CCNC(=O)C(C)c1ccc(O[C@@H]2CCN(c3cccc(C(F)F)n3)C2)cc1` (stereo partly shown) [Example 7.15] stands 408 nM; under `CC(C(=O)NCC(F)(F)F)c1ccc(O[C@@H]2CCN(c3nc(N(C)C)ncc3F)C2)cc1` (stereo partly shown) [Example 1.69], 748 nM. For `CC(C(=O)NC1CC1C)c1ccc(O[C@@H]2CCN(c3ncnc(OCC(C)(C)O)c3Cl)C2)cc1` (single isomer, unassigned) [6.4 isomer 2], half-maximal inhibition (IC50) was put at 681 nM. Next, `CC(C)NC(=O)C(C)c1ccc(O[C@@H]2CCN(c3ccc(OCC4CC4(F)F)cn3)C2)cc1` (stereo partly shown) [Example 1.63]: 652 nM; `CC(C(=O)NC1CC1C)c1ccc(O[C@@H]2CCN(c3ccc(OCC4CC4(F)F)cn3)C2)cc1` (stereo partly shown) [Example 1.10]: 205 nM; `CC(CO)NC(=O)C(C)c1ccc(O[C@@H]2CCN(c3nc(N(C)C)ncc3F)C2)cc1` (stereo partly shown) [Example 1.77]: 849 nM. Under `CC(C(=O)NCC(F)(F)F)c1ccc(O[C@@H]2CCN(c3ncnc(OCC(C)(F)F)c3F)C2)cc1` (stereo partly shown) [Example 1.64] stands 658 nM. Under `CC(C(=O)NC1CCC1)c1ccc(O[C@@H]2CCN(c3nc(N(C)C)ncc3F)C2)cc1` (stereo partly shown) [Example 1.78] stands 878 nM. Turning to `CCNC(=O)C(C)c1ccc(O[C@@H]2CCN(c3ncnc(OCC(C)(C)O)c3F)C2)cc1` (stereo partly shown) [Example 3.8], the 50% inhibitory concentration (IC50) was 622 nM. The IC50 values of the last two compounds are within 1.5-fold of each other. Next, `CCNC(=O)C(C)c1ccc(O[C@@H]2CCN(c3ncc(OC(C)C)cc3F)C2)cc1` (stereo partly shown) [Example 8.3]: 543 nM; `CC(C(=O)NC1COC1)c1ccc(O[C@@H]2CCN(c3nc(N(C)C)ncc3F)C2)cc1` (stereo partly shown) [Example 1.68]: 724 nM; `CCNC(=O)C(C)c1ccc(O[C@@H]2CCN(c3cccc(C)c3)C2)cc1` (stereo partly shown) [Example 7.16]: 410 nM. Under `CCNC(=O)C(C)c1ccc(O[C@@H]2CCN(c3ccc(OC(C)CC)cc3)C2)cc1` (stereo partly shown) [Example 7.14] stands 407 nM; under `CCCNc1ncnc(N2CC[C@@H](Oc3ccc(C(C)C(=O)NC4CC4C)cc3)C2)c1F` (stereo partly shown) [Example 3.9], 739 nM; under `CC(C(=O)NCCCO)c1ccc(O[C@@H]2CCN(c3ccc(OCC4CC4(F)F)cn3)C2)cc1` (stereo partly shown) [Example 1.86], 1380 nM.

`C#CC(C)NC(=O)C(C)c1ccc(O[C@@H]2CCN(c3ccnc(NCCC)c3F)C2)cc1` (stereo partly shown) [Example 1.90] displayed a concentration for half-maximal inhibition (IC50) of 2230 nM. With `CCN(C)C(=O)C(C)c1ccc(O[C@@H]2CCN(c3ccc(OCC4CC4(F)F)cn3)C2)cc1` (stereo partly shown) [Example 1.73], the IC50 came out at 798 nM. Next, `CCCNC(=O)C(C)c1ccc(O[C@@H]2CCN(c3ccnc(NCCC)c3F)C2)cc1` (stereo partly shown) [Example 1.32]: 402 nM; `CCCNc1nccc(N2CC[C@@H](Oc3ccc(C(C)C(=O)NC(C)C)cc3)C2)c1F` (stereo partly shown) [Example 1.24]: 319 nM. The compound `CCCNc1ncnc(N2CC[C@@H](Oc3ccc(C(C)C(=O)NCC(F)F)cc3)C2)c1F` (stereo partly shown) [Example 3.10] returned an IC50 of 955 nM.

Turning to `CC(C(=O)NCCF)c1ccc(O[C@@H]2CCN(c3ncnc(OCC(C)(C)O)c3Cl)C2)cc1` (stereo partly shown) [Example 1.54], 547 nM corresponded to half-maximal inhibition (IC50). Under `CC(C(=O)NC1CC1C)c1ccc(O[C@@H]2CCN(c3nc(N(C)C)ncc3F)C2)cc1` (stereo partly shown) [Example 1.9] stands 195 nM; under `CC(C(=O)NC1CC1C)c1ccc(O[C@@H]2CCN(c3ncnc(OCC(C)(C)O)c3Cl)C2)cc1` (stereo partly shown) [Example 1.13], 233 nM. Next, `CCCNc1nccc(N2CC[C@@H](Oc3ccc(C(C)C(=O)NC4CCC4)cc3)C2)c1F` (stereo partly shown) [Example 1.41]: 438 nM; `CC(C(=O)NCC1COC1)c1ccc(O[C@@H]2CCN(c3ncnc(OCC(C)(C)O)c3Cl)C2)cc1` (stereo partly shown) [Example 1.85]: 1220 nM. With `CC(C(=O)Nc1cccnc1)c1ccc(O[C@@H]2CCN(c3ncnc(OCC(C)(F)F)c3F)C2)cc1` (stereo partly shown) [Example 1.48], the IC50 came out at 480 nM. Next, `CCNC(=O)C(C)c1ccc(O[C@@H]2CCN(c3ccc(OC4CC4)cc3C)C2)cc1` (stereo partly shown) [Example 7.29]: 600 nM; `CC(CC#N)NC(=O)C(C)c1ccc(O[C@@H]2CCN(c3ccc(OCC4CC4(F)F)cn3)C2)cc1` (stereo partly shown) [Example 1.84]: 1120 nM. On to `C#CCNC(=O)C(C)c1ccc(O[C@@H]2CCN(c3ncnc(OCC(C)(C)O)c3Cl)C2)cc1` (stereo partly shown) [Example 1.20], for which 306 nM corresponded to half-maximal inhibition (IC50). Under `CC(C(=O)NCCF)c1ccc(O[C@@H]2CCN(c3ncnc(OCC(C)(F)F)c3F)C2)cc1` (stereo partly shown) [Example 1.55] stands 573 nM. Next, `CCNC(=O)C(C)c1ccc(O[C@@H]2CCN(c3ccc(OCC4CCC4)cc3)C2)cc1` (stereo partly shown) [Example 7.18]: 429 nM; `CCNC(=O)C(C)c1ccc(O[C@@H]2CCN(c3ccc(OC4CCC4)cc3)C2)cc1` (stereo partly drawn) [Example 7.1, 2-(4-[1-(4-Cyclobutoxy-phenyl)-(R)-pyrrolidin-3-yloxy]-phenyl)-N-ethyl-propionamide]: 41 nM.

`CCNC(=O)C(C)c1ccc(O[C@@H]2CCN(c3ncnc(OCC(C)(C)O)c3Cl)C2)cc1` (single isomer, unassigned) [6.3 isomer 1] came in with a half-maximal inhibitory concentration (IC50) of 95 nM. This IC50 is about 2.3-fold higher than that of the compound before. Next, `CC(C(=O)NC1CC1C)c1ccc(O[C@@H]2CCN(c3ncnc(OCC(C)(C)O)c3Cl)C2)cc1` (single isomer, unassigned) [6.4 isomer 1]: 121 nM; `CC(C(=O)Nc1cncnc1)c1ccc(O[C@@H]2CCN(c3ccc(OCC4CC4(F)F)cn3)C2)cc1` (stereo partly shown) [Example 1.70]: 749 nM. Take `CC(C(=O)NCC(F)(F)F)c1ccc(O[C@@H]2CCN(c3ccc(OCC4CC4(F)F)cn3)C2)cc1` (stereo partly shown) [Example 1.62]: the half-inhibitory concentration (IC50) is 637 nM. With `CC(C(=O)NC1CC1)c1ccc(O[C@@H]2CCN(c3ccc(OCC4CC4(F)F)cn3)C2)cc1` (stereo partly shown) [Example 1.8], the half-inhibitory concentration (IC50) turned out to be 179 nM. Against the preceding compound, the IC50 is about 3.6-fold lower.

`C#CCNC(=O)C(C)c1ccc(O[C@@H]2CCN(c3ccnc(NCCC)c3F)C2)cc1` (stereo partly shown) [Example 1.16] returned an IC50 of 266 nM. Under `CC(C(=O)NCC(F)F)c1ccc(O[C@@H]2CCN(c3nc(N(C)C)ncc3F)C2)cc1` (stereo partly shown) [Example 1.43] stands 443 nM. `CC[C@@H](C)NC(=O)C(C)c1ccc(O[C@@H]2CCN(c3ncnc(OCC(C)(C)O)c3Cl)C2)cc1` (stereo partly shown) [Example 1.47] displayed an IC50 of 472 nM.

Regarding `C=C(C)CNC(=O)C(C)c1ccc(O[C@@H]2CCN(c3ccnc(NCCC)c3F)C2)cc1` (stereo partly shown) [Example 1.18], the half-maximal inhibitory concentration (IC50) amounted to 286 nM. Next, `CCNC(=O)C(C)c1ccc(O[C@@H]2CCN(c3ccc(OCC4CC4(F)F)cn3)C2)cc1` (stereo partly shown) [Example 7.3]: 190 nM; `CC(C(=O)NC1CC1C)c1ccc(O[C@@H]2CCN(c3ncnc(OCC(C)(C)O)c3Cl)C2)cc1` (single isomer, unassigned) [6.4 isomer 3]: 127 nM.

`CC(C(=O)NC1CC1C)c1ccc(O[C@@H]2CCN(c3nc(N(C)C)ncc3F)C2)cc1` (single isomer, unassigned) [6.2 isomer 3] yielded a 50% inhibitory concentration (IC50) of 219 nM. This IC50 is about 1.7-fold higher than that of the compound before. Next, `CCCNc1nccc(N2CC[C@@H](Oc3ccc(C(C)C(=O)NCCF)cc3)C2)c1F` (stereo partly shown) [Example 1.19]: 296 nM; `CCNC(=O)C(C)c1ccc(O[C@@H]2CCN(c3ccc(OCC4CC4)cc3)C2)cc1` (stereo partly shown) [Example 7.8]: 274 nM; `CCCNc1ncnc(N2CC[C@@H](Oc3ccc(C(C)C(=O)NCC)cc3)C2)c1F` (stereo partly shown) [Example 3.12]: 1030 nM. Compound `C=CCNC(=O)C(C)c1ccc(O[C@@H]2CCN(c3ncnc(OCC(C)(F)F)c3F)C2)cc1` (stereo partly shown) [Example 1.45] had a half-maximal inhibitory concentration (IC50) of 463 nM. Next, `C#CCNC(=O)C(C)c1ccc(O[C@@H]2CCN(c3ncnc(OCC(C)(F)F)c3F)C2)cc1` (stereo partly shown) [Example 1.42]: 441 nM.
